Experimental data reported in US20230089073A1 (Carmot Therapeutics, Inc., priority 2021, published 2023).

Each molecule was assayed against T1, human GLP-1 receptor (Homo sapiens, UniProt P43220) (assay: GLP-1R cAMP Assay). Details: cAMP accumulation in CHO cells stably overexpressing the human GLP-1 receptor; 30 min treatment; HitHunter cAMP kit; read-out: EC50.
T1 construct: expressed in transfected cells
Assay type: cell-based
Description: cAMP accumulation was measured in Chinese hamster ovary (CHO) cells stably overexpressing the human GLP-1 receptor using the HitHunter cAMP Assay for Small Molecules Kit (Eurofins). Briefly, cells were grown in Ham's F12 Nutrient Mix with 10% FBS, and lifted with Cell Dissociation Buffer, Enzyme free, PBS based (ThermoFisher). […] The anti-cAMP antibody reagent was then added to cells at a 1:2 ratio and 5 μL of mixture was seeded in 384-well small volume white assay plates, at 10,000 cells/well. Cells were then treated with 50 nL compound using an ECHO 550 acoustic dispenser (Labcyte) in a 20-point dose response format in triplicate for 30 min. Cells were then lysed, and detection reagents added according to the manufacturer's protocol. After overnight incubation, luminescence was measured using a Perkin Elmer Envision plate reader. Dose response curves were analyzed using GraphPad Prism 9.0.

T1 sequence (P43220 24-463): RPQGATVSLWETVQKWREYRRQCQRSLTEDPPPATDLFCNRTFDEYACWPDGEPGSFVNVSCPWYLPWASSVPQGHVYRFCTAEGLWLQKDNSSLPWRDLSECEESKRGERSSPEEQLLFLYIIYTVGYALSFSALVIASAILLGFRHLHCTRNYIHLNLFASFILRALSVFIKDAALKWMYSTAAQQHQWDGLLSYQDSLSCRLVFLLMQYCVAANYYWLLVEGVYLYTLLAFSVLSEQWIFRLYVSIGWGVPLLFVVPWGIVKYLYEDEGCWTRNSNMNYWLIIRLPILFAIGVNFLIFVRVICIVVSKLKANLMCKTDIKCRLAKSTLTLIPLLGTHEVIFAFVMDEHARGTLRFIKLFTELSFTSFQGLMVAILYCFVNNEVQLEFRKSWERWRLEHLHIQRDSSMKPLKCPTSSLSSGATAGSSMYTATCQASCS

| EC50 [nM] | Compound |
| --- | --- |
| < 50 | N#Cc1ccc(COc2cccc(C3CCN(C(=O)c4ccc(-c5nnn[nH]5)nc4)CC3)n2)c(F)c1 [Example 83, 4-(((6-(1-(6-(1H-Tetrazol-5-yl)nicotinoyl)piperidin-4-yl)pyridin-2-yl)oxy)methyl)-3-fluorobenzonitrile] |
| > 500 | C[C@H]1C[C@@H](Oc2ccnc(COc3ccc(F)cc3F)n2)CCN1Cc1nc2ncc(C(=O)O)cc2n1C[C@@H]1CCO1 [Compound 512, 2-{[(2S,4S)-4-({2-[(2,4-difluorophenoxy)methyl]pyrimidin-4-yl}oxy)-2-methylpiperidin-1-yl]methyl}-1-{[(2S)-oxetan-2-yl]methyl}-1H-imidazo[4,5-b]pyridine-6-carboxylic acid] |
| < 50 | O=C(O)c1ccc2nc(CN3CCC(Oc4cccc(COc5ccc(Cl)cc5Cl)c4)CC3)n(Cc3ccno3)c2c1 [Example 208, 2-((4-(3-((2,4-Dichlorophenoxy)methyl)phenoxy)piperidin-1-yl)methyl)-1-(isoxazol-5-ylmethyl)-1H-benzo[d]imidazole-6-carboxylic acid] |
| 50 to 500 | CN(C)c1cc(C(=O)N2CCN(Cc3nc4ccc(C(=O)O)cc4n3C[C@@H]3CCO3)CC2)ncn1 [Example 1, (S)-2-((4-(6-(Dimethylamino)pyrimidine-4-carbonyl)piperazin-1-yl)methyl)-1-(oxetan-2-ylmethyl)-1H-benzo[d]imidazole-6-carboxylic acid] |
| < 50 | CCn1cncc1Cn1c(CN2CCC(C(F)c3cccc(COc4ccc(C)cc4Cl)c3)CC2)nc2ccc(C(=O)O)cc21 (racemic) [Example 131, 2-((4-((3-((2-Chloro-4-methylphenoxy)methyl)phenyl)fluoromethyl)piperidin-1-yl)methyl)-1-((1-ethyl-1H-imidazol-5-yl)methyl)-1H-benzo[d]imidazole-6-carboxylic acid] |
| < 50 | O=C(O)c1cc(F)c2nc(CN3CCC(N(CC4CC4)c4ccnc(COc5ccc(Cl)cc5F)n4)CC3)n(C[C@@H]3CCO3)c2c1 [Compound 511, 2-{[4-({2-[(4-chloro-2-fluorophenoxy)methyl]pyrimidin-4-yl}(cyclopropylmethyl)amino)piperidin-1-yl]methyl}-4-fluoro-1-{[(2S)-oxetan-2-yl]methyl}-1H-1,3-benzodiazole-6-carboxylic acid] |
| < 50 | O=C(O)c1ccc2nc(CN3CCC(Oc4ccnc(COc5ccc(F)cc5Cl)n4)CC3)n(C[C@H]3CCN3C(=O)c3ccon3)c2c1 [Example 483, (R)-2-((4-((2-((2-Chloro-4-fluorophenoxy)methyl)pyrimidin-4-yl)oxy)piperidin-1-yl)methyl)-1-((1-(isoxazole-3-carbonyl)azetidin-2-yl)methyl)-1H-benzo[d]imidazole-6-carboxylic acid] |
| < 50 | N#Cc1ccc(OCc2nccc(O[C@H]3C[C@H]4C[C@@H]3CN4Cc3nc4ccc(C(=O)O)cc4n3C[C@@H]3CCO3)n2)c(F)c1 [Compound 507, 2-{[(1R,4R,5S)-5-({2-[(4-cyano-2-fluorophenoxy)methyl]pyrimidin-4-yl}oxy)-2-azabicyclo[2.2.1]heptan-2-yl]methyl}-1-{[(2S)-oxetan-2-yl]methyl}-1H-1,3-benzodiazole-6-carboxylic acid] |

Further lines, the molecule ahead of its results:

| Compound | EC50 [nM] |
| --- | --- |
| C[C@H]1C[C@@H](Oc2ccnc(COc3ccc(Cl)cc3Cl)c2)CCN1Cc1nc2ccc(C(=O)O)cc2n1C[C@@H]1CCO1 [Compound 283, 2-{[(2S,4S)-4-({2-[(2,4-dichlorophenoxy)methyl]pyridin-4-yl}oxy)-2-methylpiperidin-1-yl]methyl}-1-{[(2S)-oxetan-2-yl]methyl}-1H-1,3-benzodiazole-6-carboxylic acid] | < 50 |
| Cc1cccc(Oc2cccc(C(=O)N3CCN(Cc4nc5ccc(C(=O)O)cc5n4C[C@@H]4CCO4)CC3)c2)c1 [Compound 17, 2-({4-[3-(3-methylphenoxy)benzoyl]piperazin-1-yl}methyl)-1-{[(2S)-oxetan-2-yl]methyl}-1H-1,3-benzodiazole-6-carboxylic acid] | > 500 |
| Cc1ccc(OCc2ccc(C(=O)N3CCN(Cc4nc5ccc(C(=O)O)cc5n4C[C@@H]4CCO4)CC3)o2)c(C)c1 [Compound 41, 2-[(4-{5-[(2,4-dimethylphenoxy)methyl]furan-2-carbonyl}piperazin-1-yl)methyl]-1-{[(2S)-oxetan-2-yl]methyl}-1H-1,3-benzodiazole-6-carboxylic acid] | 50 to 500 |
| C[C@H]1C[C@@H](Oc2ccnc(COc3ccc(C#N)cc3F)n2)CCN1Cc1nc2ccc(C(=O)O)nc2n1C[C@@H]1CCO1 [Compound 375] | < 50 |
| N#Cc1cc(F)c(F)cc1OCc1nccc(OC2CCN(Cc3nc4c(F)cc(C(=O)O)cc4n3C[C@@H]3CCO3)CC2)n1 [Compound 505, 2-{[4-({2-[(2-cyano-4,5-difluorophenoxy)methyl]pyrimidin-4-yl}oxy)piperidin-1-yl]methyl}-4-fluoro-1-{[(2S)-oxetan-2-yl]methyl}-1H-1,3-benzodiazole-6-carboxylic acid] | < 50 |
| N#Cc1cc(F)c(OCc2nccc(OC3CCN(Cc4nc5c(F)cc(C(=O)O)cc5n4C[C@@H]4CCO4)CC3)n2)cc1F [Compound 502, 2-{[4-({2-[(4-cyano-2,5-difluorophenoxy)methyl]pyrimidin-4-yl}oxy)piperidin-1-yl]methyl}-4-fluoro-1-{[(2S)-oxetan-2-yl]methyl}-1H-1,3-benzodiazole-6-carboxylic acid] | < 50 |
| CCn1cncc1Cn1c(CN2CCC(Oc3ccnc(COc4ccc(C#N)cc4F)c3)CC2)nc2ccc(C(=O)O)cc21 [Compound 275, 2-{[4-({2-[(4-cyano-2-fluorophenoxy)methyl]pyridin-4-yl}oxy)piperidin-1-yl]methyl}-1-[(1-ethyl-1H-imidazol-5-yl)methyl]-1H-1,3-benzodiazole-6-carboxylic acid] | < 50 |
| N#Cc1cc(Cl)ccc1OCc1cc(OC2CCN(Cc3nc4ccc(C(=O)O)cc4n3Cc3cnco3)CC2)ccn1 [Compound 240, 2-{[4-({2-[(4-chloro-2-cyanophenoxy)methyl]pyridin-4-yl}oxy)piperidin-1-yl]methyl}-1-[(1,3-oxazol-5-yl)methyl]-1H-1,3-benzodiazole-6-carboxylic acid] | < 50 |
| N#Cc1cc(Cl)ccc1OCc1nccc(OC2CCN(Cc3nc4ccc(C(=O)O)cc4n3C[C@@H]3CCO3)CC2)n1 [Compound 481, 2-{[4-({2-[(4-chloro-2-cyanophenoxy)methyl]pyrimidin-4-yl}oxy)piperidin-1-yl]methyl}-1-{[(2S)-oxetan-2-yl]methyl}-1H-1,3-benzodiazole-6-carboxylic acid] | < 50 |
| CCn1cncc1Cn1c(CN2CCC(Cc3cnc(COc4ccc(Cl)cc4C#N)o3)CC2)nc2ccc(C(=O)O)cc21 [Compound 138, 2-{[4-({2-[(4-chloro-2-cyanophenoxy)methyl]-1,3-oxazol-5-yl}methyl)piperidin-1-yl]methyl}-1-[(1-ethyl-1H-imidazol-5-yl)methyl]-1H-1,3-benzodiazole-6-carboxylic acid] | < 50 |
| O=C(O)c1ccc2nc(CN3CCN(C(=O)c4cccc(Cc5ccc(Cl)cc5Cl)c4)CC3)n(C[C@@H]3CCO3)c2c1 [Compound 48, 2-[(4-{3-[(2,4-dichlorophenyl)methyl]benzoyl}piperazin-1-yl)methyl]-1-{[(2S)-oxetan-2-yl]methyl}-1H-1,3-benzodiazole-6-carboxylic acid] | 50 to 500 |
| CN(c1cccc(C(=O)N2CCN(Cc3nc4ccc(C(=O)O)cc4n3C[C@@H]3CCO3)CC2)c1)c1ccc(C2CC2)cc1Cl [Compound 122, 2-[(4-{3-[(2-chloro-4-cyclopropylphenyl)(methyl)amino]benzoyl}piperazin-1-yl)methyl]-1-{[(2S)-oxetan-2-yl]methyl}-1H-1,3-benzodiazole-6-carboxylic acid] | < 50 |
| C[C@H]1C[C@H](Oc2cccc(COc3ccc(Cl)cc3Cl)c2)CCN1Cc1nc2ccc(C(=O)O)cc2n1C[C@@H]1CCO1 [Compound 254, 2-{[(2S,4R)-4-{3-[(2,4-dichlorophenoxy)methyl]phenoxy}-2-methylpiperidin-1-yl]methyl}-1-{[(2S)-oxetan-2-yl]methyl}-1H-1,3-benzodiazole-6-carboxylic acid] | < 50 |
| O=C(O)c1ccc2nc(CN3CCC(Oc4ccnc(COc5ccc(F)cc5F)n4)CC3)n(C[C@@H]3CCO3)c2c1 [Compound 479, 2-{[4-({2-[(2,4-difluorophenoxy)methyl]pyrimidin-4-yl}oxy)piperidin-1-yl]methyl}-1-{[(2S)-oxetan-2-yl]methyl}-1H-1,3-benzodiazole-6-carboxylic acid] | < 50 |
| CCn1cncc1Cn1c(CN2CCC(Cc3ccc(COc4ccc(Cl)cc4Cl)o3)CC2)nc2ccc(C(=O)O)cc21 [Compound 109, 2-{[4-({5-[(2,4-dichlorophenoxy)methyl]furan-2-yl}methyl)piperidin-1-yl]methyl}-1-[(1-ethyl-1H-imidazol-5-yl)methyl]-1H-1,3-benzodiazole-6-carboxylic acid] | < 50 |
| O=C(O)c1ccc2nc(CN3CCC(Oc4ccnc(COc5ccc(F)cc5C(F)F)c4)CC3)n(C[C@@H]3CCO3)c2c1 [Compound 357] | < 50 |
| Cc1ccc(Oc2cccc(C(=O)N3CCN(Cc4nc5ccc(C(=O)O)cc5n4C[C@@H]4CCO4)CC3)c2)c(Cl)c1 [Compound 15, 2-({4-[3-(2-chloro-4-methylphenoxy)benzoyl]piperazin-1-yl}methyl)-1-{[(2S)-oxetan-2-yl]methyl}-1H-1,3-benzodiazole-6-carboxylic acid] | 50 to 500 |
